Experimental findings from ChEMBL document CHEMBL5291721, “A preclinical secondary pharmacology resource illuminates target-adverse drug reaction associations of marketed drugs” (Nat Commun, 2023) are described below.

Bounds are passed on as bounds.

Assay [1] concerns the target T1, Muscarinic acetylcholine receptor M2 (Homo sapiens, UniProt P08172).
T1 sequence (P08172 whole entry): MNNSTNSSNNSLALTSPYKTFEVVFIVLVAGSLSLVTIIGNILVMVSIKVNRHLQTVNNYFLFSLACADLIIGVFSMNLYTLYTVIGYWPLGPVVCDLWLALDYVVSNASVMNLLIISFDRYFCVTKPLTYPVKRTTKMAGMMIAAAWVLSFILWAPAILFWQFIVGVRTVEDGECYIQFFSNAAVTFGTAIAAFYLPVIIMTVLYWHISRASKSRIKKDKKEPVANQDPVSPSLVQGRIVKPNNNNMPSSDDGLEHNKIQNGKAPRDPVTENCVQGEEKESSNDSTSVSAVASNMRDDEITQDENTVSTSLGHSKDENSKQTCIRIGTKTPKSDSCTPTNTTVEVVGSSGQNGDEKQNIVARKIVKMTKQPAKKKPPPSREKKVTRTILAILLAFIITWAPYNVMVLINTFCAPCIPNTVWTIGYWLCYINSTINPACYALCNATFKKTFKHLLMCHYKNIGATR
The format is functional, cell-based.

The target in another assay is T2, Adenosine receptor A3 (Homo sapiens, UniProt P0DMS8).
T2 sequence (P0DMS8 whole entry): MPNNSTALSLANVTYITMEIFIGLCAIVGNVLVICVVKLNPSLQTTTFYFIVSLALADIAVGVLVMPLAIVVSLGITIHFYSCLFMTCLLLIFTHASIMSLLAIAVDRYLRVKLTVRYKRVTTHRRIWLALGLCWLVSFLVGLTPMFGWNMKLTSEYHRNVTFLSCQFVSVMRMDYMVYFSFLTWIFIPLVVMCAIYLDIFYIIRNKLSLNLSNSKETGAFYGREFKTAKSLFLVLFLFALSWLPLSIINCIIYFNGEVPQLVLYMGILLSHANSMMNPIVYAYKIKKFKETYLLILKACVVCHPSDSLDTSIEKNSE

The target in another assay is T3, Thromboxane A2 receptor (Homo sapiens, UniProt P21731).
T3 sequence (P21731 whole entry): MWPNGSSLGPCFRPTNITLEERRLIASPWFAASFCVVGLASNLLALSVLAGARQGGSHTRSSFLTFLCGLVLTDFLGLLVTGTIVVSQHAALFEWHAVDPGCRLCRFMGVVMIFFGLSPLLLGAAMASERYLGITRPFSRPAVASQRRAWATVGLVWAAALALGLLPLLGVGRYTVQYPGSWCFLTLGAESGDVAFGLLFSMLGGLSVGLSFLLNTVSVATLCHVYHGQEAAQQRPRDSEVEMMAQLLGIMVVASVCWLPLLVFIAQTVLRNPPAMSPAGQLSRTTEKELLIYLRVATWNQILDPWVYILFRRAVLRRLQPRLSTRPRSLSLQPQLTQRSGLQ

The target in assay [2] is T4, Progesterone receptor (Homo sapiens, UniProt P06401).
T4 sequence (P06401 whole entry): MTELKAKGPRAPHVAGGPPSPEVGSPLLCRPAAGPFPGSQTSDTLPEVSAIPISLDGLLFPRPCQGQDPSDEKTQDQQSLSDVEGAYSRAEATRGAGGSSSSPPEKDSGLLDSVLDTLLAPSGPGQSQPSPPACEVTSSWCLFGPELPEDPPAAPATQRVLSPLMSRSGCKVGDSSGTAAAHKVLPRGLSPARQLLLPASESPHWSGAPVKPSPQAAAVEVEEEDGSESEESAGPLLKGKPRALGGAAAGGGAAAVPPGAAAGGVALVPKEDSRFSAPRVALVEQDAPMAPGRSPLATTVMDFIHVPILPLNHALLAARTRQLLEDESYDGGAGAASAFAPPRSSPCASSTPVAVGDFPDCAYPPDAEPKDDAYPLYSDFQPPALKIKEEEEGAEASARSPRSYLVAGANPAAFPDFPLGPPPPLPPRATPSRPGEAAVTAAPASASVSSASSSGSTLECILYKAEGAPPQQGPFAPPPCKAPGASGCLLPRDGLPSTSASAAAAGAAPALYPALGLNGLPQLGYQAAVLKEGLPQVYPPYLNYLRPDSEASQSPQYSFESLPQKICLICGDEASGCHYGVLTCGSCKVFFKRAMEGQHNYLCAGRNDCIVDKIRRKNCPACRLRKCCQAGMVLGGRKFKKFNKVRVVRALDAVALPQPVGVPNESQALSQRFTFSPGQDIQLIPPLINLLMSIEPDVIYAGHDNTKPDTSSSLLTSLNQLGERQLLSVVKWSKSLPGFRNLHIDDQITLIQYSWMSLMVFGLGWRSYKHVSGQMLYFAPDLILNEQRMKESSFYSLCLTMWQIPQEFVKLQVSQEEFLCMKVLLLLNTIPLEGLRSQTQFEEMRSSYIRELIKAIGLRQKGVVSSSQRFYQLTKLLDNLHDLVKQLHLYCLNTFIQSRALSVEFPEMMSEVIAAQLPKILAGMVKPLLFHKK
The format is functional.

A further assay deals with Motilin receptor (Homo sapiens, UniProt O43193).
Sequence of Motilin receptor (O43193 whole entry): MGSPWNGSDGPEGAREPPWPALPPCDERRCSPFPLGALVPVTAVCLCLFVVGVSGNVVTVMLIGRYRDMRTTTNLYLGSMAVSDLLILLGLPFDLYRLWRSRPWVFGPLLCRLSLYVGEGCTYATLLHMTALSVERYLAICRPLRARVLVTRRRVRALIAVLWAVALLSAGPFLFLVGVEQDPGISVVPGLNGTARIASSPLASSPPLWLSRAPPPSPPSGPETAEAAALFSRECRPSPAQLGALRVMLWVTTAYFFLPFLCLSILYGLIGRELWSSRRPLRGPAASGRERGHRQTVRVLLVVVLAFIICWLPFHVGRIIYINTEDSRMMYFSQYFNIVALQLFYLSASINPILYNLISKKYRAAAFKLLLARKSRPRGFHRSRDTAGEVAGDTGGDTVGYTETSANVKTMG
The target in assay [3] is T5, Muscarinic acetylcholine receptor M1 (Homo sapiens, UniProt P11229).
T5 sequence (P11229 whole entry): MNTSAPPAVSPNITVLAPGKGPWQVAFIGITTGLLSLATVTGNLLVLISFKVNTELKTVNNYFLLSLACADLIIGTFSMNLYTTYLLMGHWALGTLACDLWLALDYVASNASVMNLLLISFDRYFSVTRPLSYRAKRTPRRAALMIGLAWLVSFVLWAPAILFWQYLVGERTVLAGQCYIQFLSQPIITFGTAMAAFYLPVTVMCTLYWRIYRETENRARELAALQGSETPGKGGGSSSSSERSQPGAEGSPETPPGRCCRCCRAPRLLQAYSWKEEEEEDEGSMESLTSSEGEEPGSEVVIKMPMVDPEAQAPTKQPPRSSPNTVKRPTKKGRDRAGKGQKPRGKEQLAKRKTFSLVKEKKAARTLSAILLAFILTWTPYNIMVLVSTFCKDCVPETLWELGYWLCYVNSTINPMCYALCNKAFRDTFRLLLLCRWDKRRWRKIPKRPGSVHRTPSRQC
The format is functional.

Assay [4] deals with 5-hydroxytryptamine receptor 2A (Homo sapiens, UniProt P28223). The format is functional, cell-based.
Sequence of 5-hydroxytryptamine receptor 2A (P28223 whole entry): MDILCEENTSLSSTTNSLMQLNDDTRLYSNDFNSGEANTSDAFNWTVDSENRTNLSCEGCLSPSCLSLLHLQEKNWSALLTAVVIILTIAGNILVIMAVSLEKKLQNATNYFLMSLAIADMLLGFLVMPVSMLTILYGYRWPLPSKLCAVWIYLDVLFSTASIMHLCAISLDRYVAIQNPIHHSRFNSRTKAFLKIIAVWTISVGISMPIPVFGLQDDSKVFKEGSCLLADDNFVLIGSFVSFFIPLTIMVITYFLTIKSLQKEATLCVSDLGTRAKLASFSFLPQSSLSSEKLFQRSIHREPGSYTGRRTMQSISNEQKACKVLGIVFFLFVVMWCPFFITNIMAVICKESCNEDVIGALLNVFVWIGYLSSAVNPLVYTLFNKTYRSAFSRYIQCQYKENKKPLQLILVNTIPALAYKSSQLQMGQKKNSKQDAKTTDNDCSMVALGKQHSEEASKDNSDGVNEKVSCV
The target of assay [5] is T4, Progesterone receptor.
The target in assay [6] is T1, Muscarinic acetylcholine receptor M2.
In assay [7] the target is 5-hydroxytryptamine receptor 2B (Homo sapiens, UniProt P41595).
Sequence of 5-hydroxytryptamine receptor 2B (P41595 whole entry): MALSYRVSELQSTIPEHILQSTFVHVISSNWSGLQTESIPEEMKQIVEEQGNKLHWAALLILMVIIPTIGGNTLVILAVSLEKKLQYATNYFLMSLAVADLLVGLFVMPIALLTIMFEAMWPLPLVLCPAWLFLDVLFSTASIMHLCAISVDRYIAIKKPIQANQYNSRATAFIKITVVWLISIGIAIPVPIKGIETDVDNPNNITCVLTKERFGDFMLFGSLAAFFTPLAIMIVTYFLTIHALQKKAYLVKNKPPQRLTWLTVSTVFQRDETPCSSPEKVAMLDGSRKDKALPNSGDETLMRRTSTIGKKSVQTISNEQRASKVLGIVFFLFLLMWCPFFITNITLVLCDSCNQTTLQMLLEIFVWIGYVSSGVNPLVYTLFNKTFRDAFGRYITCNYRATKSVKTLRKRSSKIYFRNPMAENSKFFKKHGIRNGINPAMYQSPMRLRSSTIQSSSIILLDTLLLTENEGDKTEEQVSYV
Also: assay procedure not described here.

In general, AC50 refers to the midpoint of the concentration-response curve, whichever way the signal moves. For `CC(/C=C1\SC(=S)N(CC(=O)O)C1=O)=C\c1ccccc1`, the AC50 in assay [1] is over 30 µM; on Adenosine receptor A3, 20 µM; at Thromboxane A2 receptor it was 27 µM; on Progesterone receptor [2] it was over 30 µM; on Motilin receptor it was over 30 µM.

`O=C1CN2Cc3c(ccc(Cl)c3Cl)N=C2N1` [ANAGRELIDE]: the AC50 was over 10 µM in assay [3]; over 10 µM in assay [1]; over 30 µM in assay [4]; over 30 µM on Adenosine receptor A3; over 30 µM at Thromboxane A2 receptor; over 30 µM at Progesterone receptor [5]. At Motilin receptor, this compound registered an AC50 of over 10 µM.

With `CNCC[C@@H](Oc1ccccc1C)c1ccccc1` [ATOMOXETINE], the AC50 on Adenosine receptor A3, on Thromboxane A2 receptor, on Progesterone receptor [2] and at Motilin receptor was over 30 µM in each case.

As for `CCc1oc2ccccc2c1C(=O)c1cc(Br)c(O)c(Br)c1` [BENZBROMARONE], the AC50 is 4.19 µM at Adenosine receptor A3; 29 µM at Thromboxane A2 receptor; 3.8 µM at Progesterone receptor [2]; over 30 µM at Progesterone receptor [5]; 0.0373 µM in assay [6]; over 30 µM on Motilin receptor.

For `[H]/N=C(\N/C(=N/[H])NCCCCCCNC(=N)NC(=N)Nc1ccc(Cl)cc1)Nc1ccc(Cl)cc1` [CHLORHEXIDINE], the AC50 in assay [3] is over 10 µM; in assay [4], 1.83 µM; on Adenosine receptor A3, 4.1 µM; at Thromboxane A2 receptor it was over 30 µM; at Progesterone receptor [2] it was 21.9 µM; on Motilin receptor, 0.784 µM. In [7], this compound had an AC50 of 0.683 µM.

Turning to `Clc1cccc(Cl)c1N=C1NCCN1` [CLONIDINE], the AC50 in assay [1] is over 10 µM; on Adenosine receptor A3, over 30 µM; at Thromboxane A2 receptor, over 30 µM; on Progesterone receptor [5], over 30 µM; in [6], over 10 µM; at Motilin receptor it was over 10 µM. In [7], this compound showed an AC50 of over 10 µM.

Consider `Cn1c(=O)c2c(ncn2CC(O)CO)n(C)c1=O` (configuration not stated) [DYPHYLLINE], for which the AC50 on Adenosine receptor A3 was over 30 µM.

As for `CC1(C)O[C@@H]2C[C@H]3[C@@H]4C[C@H](F)C5=CC(=O)C=C[C@]5(C)[C@H]4[C@@H](O)C[C@]3(C)[C@]2(C(=O)CO)O1` [FLUNISOLIDE], the half-maximal activity concentration (AC50) was over 30 µM in assay [1], over 30 µM on Adenosine receptor A3, over 3 µM on Progesterone receptor [2] and over 30 µM at Motilin receptor.

On to `Nc1nc(O)c2ncn(COC(CO)CO)c2n1` [GANCICLOVIR], for which the AC50 (in assay [1]; at Adenosine receptor A3; at Thromboxane A2 receptor; at Progesterone receptor [2]; at Motilin receptor) was over 30 µM throughout.

In the case of `CC(=O)/N=c1/sc(S(N)(=O)=O)nn1C` [METHAZOLAMIDE], the AC50 (in [3]; in [1]; in assay [4]; on Adenosine receptor A3; at Thromboxane A2 receptor; on Progesterone receptor [2]) was over 10 µM in each case. Moreover, at Motilin receptor, the AC50 is over 10 µM.

For the compound `CC[C@@H](CO)NC(=O)[C@@H]1C=C2c3cccc4[nH]cc(c34)C[C@H]2N(C)C1` [METHYLERGONOVINE], the AC50 was over 30 µM in [1]; over 30 µM on Adenosine receptor A3; over 30 µM on Thromboxane A2 receptor; over 30 µM at Motilin receptor; 0.0037 µM in [7].

Consider `CC(=O)Oc1ccccc1C(=O)Nc1ncc([N+](=O)[O-])s1` [NITAZOXANIDE], for which the AC50 in [3] was over 30 µM; in [4], 15 µM; on Adenosine receptor A3, 5 µM; on Thromboxane A2 receptor, 5 µM; on Progesterone receptor [2], over 30 µM; on Motilin receptor it was 13 µM.

Take `CNCCC=C1c2ccccc2CCc2ccccc21` [NORTRIPTYLINE]: the AC50 in [1] was 1.9 µM; at Adenosine receptor A3 it was over 30 µM; at Thromboxane A2 receptor, over 30 µM; at Progesterone receptor [2] it was over 30 µM; in assay [6], 0.632 µM; on Motilin receptor, over 30 µM.

Turning to `COc1ccnc(C[S+]([O-])c2nc3ccc(OC(F)F)cc3[nH]2)c1OC` (configuration not stated) [PANTOPRAZOLE], the AC50 in [1] is over 10 µM; on Thromboxane A2 receptor it was over 30 µM; at Progesterone receptor [5] it was over 30 µM; in [6], over 10 µM; on Motilin receptor, over 10 µM; in [7], over 10 µM.

For the compound `COc1ccc(Cc2nccc3cc(OC)c(OC)cc23)cc1OC` [PAPAVERINE], the concentration at half-maximal activity (AC50) (in assay [1]; on Adenosine receptor A3; on Thromboxane A2 receptor; at Progesterone receptor [2]; on Motilin receptor) was over 30 µM in each case.

In the case of `CNC(=O)c1cc(Oc2ccc(NC(=O)Nc3ccc(Cl)c(C(F)(F)F)c3)c(F)c2)ccn1` [REGORAFENIB], the AC50 is over 30 µM in assay [3]; over 30 µM in assay [1]; over 30 µM in [4]; 2.51 µM at Adenosine receptor A3; over 30 µM on Progesterone receptor [2].

In the case of `CC[C@H]1OC(=O)[C@H](C)[C@@H](O[C@H]2C[C@@](C)(OC)[C@@H](O)[C@H](C)O2)[C@H](C)[C@@H](O[C@@H]2O[C@H](C)C[C@H](N(C)C)[C@H]2O)[C@](C)(O)C[C@@H](C)/C(=N\OCOCCOC)[C@H](C)[C@@H](O)[C@]1(C)O` [ROXITHROMYCIN], the AC50 is over 30 µM in assay [1], over 30 µM at Adenosine receptor A3, over 30 µM at Progesterone receptor [2] and 9 µM at Motilin receptor.

As for `Cn1c(=O)c2[nH]cnc2n(C)c1=O` [THEOPHYLLINE], the AC50 in assay [1] is over 10 µM; at Thromboxane A2 receptor, over 30 µM; at Progesterone receptor [5], over 30 µM; in assay [6] it was over 10 µM; at Motilin receptor it was over 10 µM.

For `Cc1cc(CC(=O)O)n(C)c1C(=O)c1ccc(Cl)cc1` [ZOMEPIRAC], the AC50 (in assay [3]; in assay [1]; in assay [4]; at Adenosine receptor A3; at Thromboxane A2 receptor; at Progesterone receptor [2]) was over 30 µM each time. At Motilin receptor, this compound yielded a half-maximal activity concentration (AC50) of over 30 µM.
